Experimental data: US20210149304A1, “PHOTOSENSITIVE RESIN COMPOSITION, CURED FILM, ELEMENT COMPRISING CURED FILM, ORGANIC EL DISPLAY DEVICE COMPRISING CURED FILM, METHOD FOR PRODUCING CURED FILM, AND METHOD FOR PRODUCING ORGANIC EL DISPLAY DEVICE” (TORAY INDUSTRIES, INC., priority 2017, published 2021)

Experiment: physchem
Description: The acid dissociation constant (pKa) is a logarithmic value of the inverse number of the acid dissociation constant pKa in a dilute aqueous solution at 25° C. In cases of multistep dissociation, the dissociation constant in the first step (that is, pKa1) is employed.
In the compound (E2) having a phenolic hydroxyl group indicating an acid dissociation constant pKa of 6.0 to 9.5 at 25° C., the acid dissociation constant (pKa) is a logarithmic value of the inverse number of the acid dissociation constant in a dilute aqueous solution at 25° C. In cases of multistep dissociation, the dissociation constant in the first step (that is, pKa1) is employed. […] The acid dissociation constant pKa is preferably not less than 6.3, more preferably not less than 6.6, still more preferably not less than 7.0.

Compound	pKa	pKa (acid dissociation constant) (at 25° C., dilute aqueous solution, first step pKa1)	pKa (acid dissociation constant)
Oc1ccc(C(F)(F)F)cc1 [E(v), 4-(trifluoromethyl)phenol]	8.5	–	–
O=S(=O)(c1ccc(O)cc1)c1ccc(O)cc1 [E(ii), bisphenol S]	–	7.6	–
Cc1cc(CCC(=O)OCC(C)(C)C2OCC3(CO2)COC(C(C)(C)COC(=O)CCc2cc(C)c(O)c(C(C)(C)C)c2)OC3)cc(C(C)(C)C)c1O (stereo not drawn) [AO-80, 3,9-bis[1,1-dimethyl-2-[(3-tert-butyl-4-hydroxy-5-methylphenyl)propionyloxy]ethyl]-2,4,8,10-tetraoxaspiro[5.5]undecane]	12	–	–
Oc1ccc(C(c2ccc(O)cc2)(C(F)(F)F)C(F)(F)F)cc1 [E(i), bisphenol AF]	8.7	–	8.7
Cc1cc(O)c(C(C)(C)C)cc1C(C)CC(c1cc(C(C)(C)C)c(O)cc1C)c1cc(C(C)(C)C)c(O)cc1C (stereo not drawn) [AO-30, 1,1,3-tris(2-methyl-4-hydroxy-5-tert-butylphenyl)butane]	11.6	–	–
O=C(c1ccccc1O)c1ccccc1O [E(iv), 2,2′-dihydroxybenzophenone]	7.3	–	–
O=C(c1ccc(O)cc1)c1ccc(O)cc1 [E(iii), 4,4′-dihydroxybenzophenone]	7.7	–	–
CC(c1ccc(O)cc1)(c1ccc(O)cc1)c1ccc(O)cc1 [E(vi), 1,1,1-tris(4-hydroxyphenyl)ethane]	10	–	–
